The text below walks through data of publication PMC2783333 (Nature chemical biology, 2009).

Read-outs that look alike come from different tables or passages of the source.

By AC50 is commonly meant the concentration at which the activity in the assay is half-maximal.

Assay [1] has as its system MARTXVc CPD. Particulars: cited from earlier work.
Assay [2] concerns MARTXVc CPD. It counts as biochemical, Vibrio cholerae. The conditions noted are these: read-out: AC50 (InsP6 for 50% cleavage).
Assay [3] addresses V. vulnificus CMCP6 VV20479 MARTX CPD (Vibrio vulnificus, UniProt A0A2S3R7M0). It is filed as biochemical. The conditions noted are these: 10 µM InsP6.
Assay [4] relates to P. luminescens TTO1 MARTX CPDs (Plu3217, Plu3324, Plu1341, Plu1344). It is filed as biochemical, Photorhabdus luminescens.

In the case of `O=P(O)(O)OC1C(OP(=O)(O)O)C(OP(=O)(O)O)C(OP(=O)(O)O)C(OP(=O)(O)O)C1OP(=O)(O)O` (centres unmarked) [InsP6, inositol hexakisphosphate], the AC50 in the assay with MARTXVc CPD [1] (read-out: AC50 (InsP6 for half-maximal autocleavage)) is 0.91 ± 0.1 nM; with MARTXVc CPD [2], 0.76 ± 0.27 nM. Besides, the InsP6-dependent autoprocessing entry in assay [3] and in assay [4] was “underwent InsP6-dependent autoprocessing” in each case.

On to `Nc1nc2c(ncn2[C@@H]2O[C@H](COP(=O)(O)OP(=O)(O)OP(O)(O)=S)[C@@H](O)[C@H]2O)c(=O)[nH]1` [GTPγS, guanosine 5′-[γ-thio]triphosphate], for which, in the assay with MARTXVc CPD [1], the “potency as activator of the CPD” value is on record as “much less potent activator”.
